pEC50: −log10 of the molar value. Like-named read-outs stand apart in the source and are kept apart here.
How the values were obtained:
[1] = system: Wnt activity (Sp5-Luc reporter in SW480 colon carcinoma cells); assay: Wnt activity screening assay (Sp5-Luc reporter gene assay); format: cell-based, human; conditions: for pEC50: Sp5-Luc reporter, SW480 cells, 36 to 48 hours; for inhibition at 10 µM: SW480, read-out: percent inhibition at 10 μM
Method in brief: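 Compounds at 10 points (1:3 steps, top 10 μM, 0.1% DMSO final) were incubated 36 to 48 h at 37° C with stable Sp5-Luc SW480 reporter cells in 1% FBS medium. Luciferase luminescence was then read and expressed relative to DMSO-only cells. Four-parameter variable-slope fitting yielded EC50 values.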

GSK3β kinase = GSK3β kinase (Homo sapiens (Human), UniProt P49841); assay: GSK3β kinase assay (Ser/Thr 09 peptide Z-lyte, FRET); format: biochemical; conditions: method text calls the value IC50;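 further: Coumarin/fluorescein emission ratio converted to percent phosphorylation against unphosphorylated (0%) and phosphorylated (100%) controls, 1 h compound incubation at room temperature, 11-point threefold dilutions from 10 µM, run in duplicate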
Procedure: Representative compounds were screened using the assay procedure for GSK30 kinase activity as described below.
Each compound is dissolved in DMSO as a 10 mM stock and used to prepare compound source plates. Serial dilution (1:3, 11-point dose-response curves from 10 M to 0.0003 μM) and compound transfer was performed using the ECHO 550 (Labcyte, Sunnyvale, Calif.) into 1536-well black-walled round bottom plates (Corning).
This is a non-radioactive assay using fluorescence resonance energy transfer (FRET) between coumarin and fluorescein to detect kinase activity which is represented as ratio of coumarin emission/fluorescein emission.
The mixture is allowed to incubate with the representative compounds for one hour at room temperature. All reactions were performed in duplicate. Unphosphorylated (“0% Control”) and phosphorylated (“100% control”) forms of Ser/Thr 18 serve as control reactions.
After incubation, diluted Development Buffer is added to the reaction and allowed to further incubate for one hour at room temperature.
The percent phosphorylation is then calculated using the following formula: [1−((Em ratio×F100%)−C100%)/((C0%−C100%)+(Em ratio×(F100%−F0%)))].
Dose-response curves are generated and inhibitory concentration (IC50) values are calculated using non-linear regression curve fit in the Dotmatics' Studies Software (Bishops Stortford, UK).

[2] = system: Tau phosphorylation at Ser396 (pSer396), SH-SY5Y cells; assay: Tau phosphorylation at Ser396 (pSer396) in SH-SY5Y cells, ELISA/western blot; format: cell-based, human; conditions: SH-SY5Y cells, overnight (16-18 h), read-out: pSer396 Tau EC50;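 further: cell lysates probed for reduced Tau pSer396 via ELISA (colorimetric) or western blot (chemiluminescence), both with one shared pSer396 antibody, EC50 for lowering phosphorylation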
Procedure: Two days before treatment, cells were seeded onto 96 well plates at 5×10^4 cells/well.
Wells were visually checked for cell death or change in morphology and supernatants were tested for cytotoxicity by measurement of lactate dehydrogenase release (LDH, CytoToxOne kit, Promega) if necessary.
Cells were lysed with RIPA buffer complemented with phosphatase and protease inhibitors then lysates were spun down at 12,000 g for 10 min to remove any cellular debris. Lysates are then either directly tested for pSer396 by ELISA (Life Technology, Kit KHB7031) or loaded on NuPage Bis-Tris gels for western blot analysis. Colorimetric detection of ELISA signal is performed by Cytation3 plate reader (Biotek) and the chemiluminescence signal for HRP-linked antibodies used in western blotting is detected using a Carestream Image Station. The same pSer396 antibody is used for detection of pTau in both assays.

[3] = system: SW480 colon carcinoma cells; assay: Cell viability assay (CellTiter-Glo) in SW480 cells; format: cell-based, human; conditions: for pEC50: cell viability, SW480 cells, four days, CellTiter-Glo; for inhibition at 10 µM: SW480, read-out: percent inhibition at 10 μM;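 on all read-outs here: SW480 cells stably carrying an Sp5-luciferase TCF/LEF reporter, luminescent ATP signal as viability measure, DMSO-treated cells as control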
Procedure: Representative compounds were screened using the assay procedure to assess the effect on cell viability as described below.
SW480 colon carcinoma cells were transduced with a lentiviral vector expressing luciferase with a human Sp5 promoter consisting of a sequence of eight TCF/LEF binding sites. SW480 cells stably expressing the Sp5-Luc reporter gene and a hygromycin resistance gene were selected by treatment with 150 μg/mL of hygromycin for 7 days. These stably transduced SW480 cells were expanded in cell culture and used for all further screening activities. Each compound was dissolved in DMSO as a 10 mM stock and used to prepare compound source plates.
For the Cell Viability Assays, the cells were plated at 2,000 cells/well in 384-well plates with a DMEM medium containing 1% fetal bovine serum, and 1% Penicillin-Streptomycin and incubated for four days hours at 37° C. and 5% CO2. Eight replicates of DMSO-treated cells served as controls and cells treated with compound were performed in duplicate.
After incubation, 10 μL of CellTiter-Glo (Promega) was added to each well allowed to incubate for approximately 12 minutes.
Dose-response curves were generated and EC50 concentration values were calculated using non-linear regression curve fit in the GraphPad Prism (San Diego, Calif.) or Dotmatics' Studies Software (Bishops Stortford, UK).

[4] = system: LL29 cells (primary human fibroblasts derived from IPF patients), α-smooth muscle actin; assay: Inhibition of fibrotic process: αSMA in TGF-β1-treated primary human fibroblasts from IPF patients (LL29 cells); format: cell-based; conditions: for pEC50: % αSMA-positive LL29 cells, TGF-β1 20 ng/mL, 4 days; for inhibition at 10 µM: read-out: percent inhibition at 10 μM
Method in brief: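 Read-out is the percentage of αSMA-positive cells by high-content imaging, excluding SYTOX green-positive dead/apoptotic cells, normalized to TGF-β1-only wells on the same plate. LL29 cells were exposed for 4 days at 37 °C to 20 ng/mL TGF-β1 plus 11-point, 2-fold compound dilutions in 0.1% DMSO.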

IL-6 = IL-6 inhibition in LPS-stimulated human peripheral blood mononuclear cells (HTRF); format: cell-based; conditions: for pEC50: IL-6, LPS-stimulated huPBMCs, HTRF; for inhibition at 10 µM: read-out: percent value in parentheses below EC50 >10
Method in brief: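 EC50 from a 4-parameter fit of DMSO-normalized HTRF (665/620 nm) IL-6 signal, duplicates. Compound was added to fresh human PBMCs in 1% FBS RPMI for 2 h (top 10 μM, 3-fold, 0.25% DMSO) before 22 h stimulation with LPS at 50 ng/mL, 37 °C.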

DYRK1A kinase = DYRK1A kinase (Homo sapiens (Human), UniProt Q13627); assay: DYRK1A kinase assay (Ser/Thr 18 peptide Z-lyte, FRET); conditions: DYRK1A kinase; method text calls the value IC50
Procedure: Each compound was dissolved in DMSO as a 10 mM stock and used to prepare compound source plates.
This is a non-radioactive assay using fluorescence resonance energy transfer (FRET) between coumarin and fluorescein to detect kinase activity which is represented as a ratio of coumarin emission/fluorescein emission.
The mixture was allowed to incubate with the representative compounds for one hour at room temperature. All reactions were performed in duplicate. Unphosphorylated (“0% Control”) and phosphorylated (“100% control”) forms of Ser/Thr 18 served as control reactions. Additionally, an 11-point dose-response curve of Staurosporine (1 uM top) was run to serve as a positive compound control.
After incubation, Development Reagent A was diluted in Development Buffer then added to the reaction and allowed to further incubate for one hour at room temperature.
The percent phosphorylation was then calculated using the following formula: [1−((Em ratio×F100%)−C100%)/((C0%−C100%)+(Em ratio×(F100%−F0%)))]. Dose-response curves were generated and inhibitory concentration (IC50) values were calculated using non-linear regression curve fit in the Dotmatics' Studies Software (Bishops Stortford, UK).

Sequence of GSK3β kinase (P49841 whole entry): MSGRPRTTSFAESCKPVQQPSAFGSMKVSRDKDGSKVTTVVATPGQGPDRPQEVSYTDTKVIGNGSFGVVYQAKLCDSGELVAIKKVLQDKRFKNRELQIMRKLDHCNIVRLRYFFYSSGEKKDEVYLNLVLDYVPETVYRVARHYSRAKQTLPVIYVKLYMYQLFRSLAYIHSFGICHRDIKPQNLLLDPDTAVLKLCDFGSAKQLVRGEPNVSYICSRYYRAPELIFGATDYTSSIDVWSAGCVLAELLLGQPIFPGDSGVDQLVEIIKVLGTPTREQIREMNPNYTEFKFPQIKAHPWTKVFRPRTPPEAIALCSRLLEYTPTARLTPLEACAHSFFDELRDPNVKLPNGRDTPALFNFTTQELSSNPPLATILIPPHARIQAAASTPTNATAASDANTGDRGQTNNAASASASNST

Cc1ncc(-c2ccc3cnc(NC(=O)C4CCN(CC(C)(F)F)CC4)cc3c2)o1 [Compound 20, 1-(2,2-Difluoropropyl)-N-(6-(2-methyloxazol-5-yl)isoquinolin-3-yl) piperidine-4-carboxamide]
pEC50 [1]: 5.58 | pEC50 (GSK3β kinase): 7.39 | pEC50 [2]: 6.28 | pEC50 [3]: 5.51 | pEC50 [4]: 6.32 | percent inhibition of IL-6 at 10 µM (IL-6): (13.4%) | pEC50 (IL-6): < 5.00 | pEC50 (DYRK1A kinase): 8.30

Cc1nnc(-c2ccc3cnc(NC(=O)[C@H]4CC[C@H](N)CC4)cc3c2)s1 [Compound 21, trans-4-Amino-N-(6-(5-methyl-1,3,4-thiadiazol-2-yl)isoquinolin-3-yl) cyclohexane-1-carboxamide]
pEC50 ([1]; Homo sapiens): 6.18 | pEC50 (GSK3β kinase): 7.46 | pEC50 ([2]; Homo sapiens): 6.25 | pEC50 ([3]; Homo sapiens, 96 h): 5.97 | pEC50 ([4]; Homo sapiens, Fibroblast, 96 h): 6.47 | pEC50 (IL-6; Homo sapiens, PBMC): 5.03 | pEC50 (DYRK1A kinase): 8.22

Cc1nnc(-c2ccc3cnc(NC(=O)[C@H]4CC[C@H](N5CCOCC5)CC4)cc3c2)s1 [Compound 23, trans-N-(6-(5-Methyl-1,3,4-thiadiazol-2-yl)isoquinolin-3-yl)-4-morpholinocyclohexane-1-carboxamide]
pEC50 ([1]; Homo sapiens): 6.14 | pEC50 (GSK3β kinase): 7.77 | pEC50 ([2]; Homo sapiens): 6.79 | pEC50 ([3]; Homo sapiens, 96 h): 5.67 | pEC50 ([4]; Homo sapiens, Fibroblast, 96 h): 6.31 | pEC50 (IL-6; Homo sapiens, PBMC): 5.03 | pEC50 (DYRK1A kinase): 8.40

Cc1nnc(-c2ccc3cnc(NC(=O)C4CCNCC4)cc3c2)s1 [Compound 24, N-(6-(5-Methyl-1,3,4-thiadiazol-2-yl)isoquinolin-3-yl)piperidine-4-carboxamide]
pEC50 ([1]; Homo sapiens): 5.93 | pEC50 (GSK3β kinase): 7.52 | pEC50 ([2]; Homo sapiens): 6.90 | pEC50 ([3]; Homo sapiens, 96 h): 5.44 | pEC50 ([4]; Homo sapiens, Fibroblast, 96 h): 6.24 | pEC50 (IL-6; Homo sapiens, PBMC): 5.06 | pEC50 (DYRK1A kinase): 8.15

Cc1nnc(-c2ccc3cnc(NC(=O)C4(F)CCNCC4)cc3c2)s1 [Compound 25, 4-Fluoro-N-(6-(5-methyl-1,3,4-thiadiazol-2-yl)isoquinolin-3-yl)piperidine-4-carboxamide]
inhibition at 10 µM ([1]; Homo sapiens): 34.3% | pEC50 ([1]; Homo sapiens): < 5.00 | pEC50 (GSK3β kinase): 6.50 | pEC50 ([2]; Homo sapiens): 6.37 | pEC50 ([3]; Homo sapiens, 96 h): < 5.00 | inhibition at 10 µM ([3]; Homo sapiens): 40.3% | pEC50 ([4]; Homo sapiens, Fibroblast, 96 h): 5.41 | inhibition at 10 µM (IL-6; Homo sapiens, PBMC): 8% | pEC50 (IL-6; Homo sapiens, PBMC): < 5.00 | pEC50 (DYRK1A kinase): 7.85

Cc1nnc(-c2ccc3cnc(NC(=O)C4(F)CCN(C)CC4)cc3c2)s1 [Compound 26, 4-Fluoro-1-methyl-N-(6-(5-methyl-1,3,4-thiadiazol-2-yl)isoquinolin-3-yl) piperidine-4-carboxamide]
pEC50 ([1]; Homo sapiens): 5.16 | pEC50 (GSK3β kinase): 6.28 | pEC50 ([2]; Homo sapiens): 6.78 | pEC50 ([3]; Homo sapiens, 96 h): 5.07 | pEC50 ([4]; Homo sapiens, Fibroblast, 96 h): < 5.00 | inhibition at 10 µM ([4]; Homo sapiens, Fibroblast): 48.4% | inhibition at 10 µM (IL-6; Homo sapiens, PBMC): 5.6% | pEC50 (IL-6; Homo sapiens, PBMC): < 5.00 | pEC50 (DYRK1A kinase): 7.42

Cc1nnc(-c2ccc3cnc(NC(=O)C4CCN(CC(F)F)CC4)cc3c2)s1 [Compound 27, 1-(2,2-Difluoroethyl)-N-(6-(5-methyl-1,3,4-thiadiazol-2-yl)isoquinolin-3-yl)piperidine-4-carboxamide]
pEC50 ([1]; Homo sapiens): 6.03 | pEC50 (GSK3β kinase): 7.96 | pEC50 ([2]; Homo sapiens): 6.98 | pEC50 ([3]; Homo sapiens, 96 h): 5.68 | pEC50 ([4]; Homo sapiens, Fibroblast, 96 h): 6.63 | inhibition at 10 µM (IL-6; Homo sapiens, PBMC): 2.8% | pEC50 (IL-6; Homo sapiens, PBMC): < 5.00 | pEC50 (DYRK1A kinase): 8.22

Cc1nnc(-c2ccc3cnc(NC(=O)C4CCN(CC(C)(F)F)CC4)cc3c2)s1 [Compound 28, 1-(2,2-Difluoropropyl)-N-(6-(5-methyl-1,3,4-thiadiazol-2-yl)isoquinolin-3-yl)piperidine-4-carboxamide]
pEC50 ([1]; Homo sapiens): 5.96 | pEC50 (GSK3β kinase): 8.10 | pEC50 ([2]; Homo sapiens): 7.05 | pEC50 ([3]; Homo sapiens, 96 h): < 5.00 | inhibition at 10 µM ([3]; Homo sapiens): 37.8% | pEC50 ([4]; Homo sapiens, Fibroblast, 96 h): 6.35 | inhibition at 10 µM (IL-6; Homo sapiens, PBMC): 4.3% | pEC50 (IL-6; Homo sapiens, PBMC): < 5.00 | pEC50 (DYRK1A kinase): 8.40

Cc1nnc(-c2ccc3cnc(NC(=O)N(C)C4CCN(C)CC4)cc3c2)s1 [Compound 29, 1-Methyl-3-(6-(5-methyl-1,3,4-thiadiazol-2-yl)isoquinolin-3-yl)-1-(1-methylpiperidin-4-yl)urea]
inhibition at 10 µM ([1]; Homo sapiens): 45.6% | pEC50 ([1]; Homo sapiens): < 5.00 | pEC50 (GSK3β kinase): 6.47 | pEC50 ([2]; Homo sapiens): 5.47 | pEC50 ([3]; Homo sapiens, 96 h): < 5.00 | inhibition at 10 µM ([3]; Homo sapiens): 28.2% | pEC50 ([4]; Homo sapiens, Fibroblast, 96 h): < 5.00 | inhibition at 10 µM ([4]; Homo sapiens, Fibroblast): 3.2% | inhibition at 10 µM (IL-6; Homo sapiens, PBMC): 6% | pEC50 (IL-6; Homo sapiens, PBMC): < 5.00 | pEC50 (DYRK1A kinase): 7.74

CNC1CCN(C(=O)Nc2cc3cc(-c4nnc(C)s4)ccc3cn2)CC1 [Compound 30, N-(6-(5-Methyl-1,3,4-thiadiazol-2-yl)isoquinolin-3-yl)-4-(methylamino) piperidine-1-carboxamide]
pEC50 ([1]; Homo sapiens): 5.48 | pEC50 (GSK3β kinase): 7.00 | pEC50 ([2]; Homo sapiens): 6.34 | pEC50 ([3]; Homo sapiens, 96 h): 5.17 | pEC50 ([4]; Homo sapiens, Fibroblast, 96 h): 5.39 | inhibition at 10 µM (IL-6; Homo sapiens, PBMC): 9.3% | pEC50 (IL-6; Homo sapiens, PBMC): < 5.00 | pEC50 (DYRK1A kinase): 7.57

Cc1nnc(-c2ccc3cnc(NC(=O)N4CCC(N(C)C)CC4)cc3c2)s1 [Compound 31, 4-(Dimethylamino)-N-(6-(5-methyl-1,3,4-thiadiazol-2-yl)isoquinolin-3-yl) piperidine-1-carboxamide]
pEC50 ([1]; Homo sapiens): 5.69 | pEC50 (GSK3β kinase): 6.93 | pEC50 ([2]; Homo sapiens): 6.41 | pEC50 ([3]; Homo sapiens, 96 h): 5.42 | pEC50 ([4]; Homo sapiens, Fibroblast, 96 h): 5.43 | inhibition at 10 µM (IL-6; Homo sapiens, PBMC): 19.8% | pEC50 (IL-6; Homo sapiens, PBMC): < 5.00 | pEC50 (DYRK1A kinase): 7.62

Cc1nnc(-c2ccc3cnc(NC(=O)N4CCC(N(C)CC(F)F)CC4)cc3c2)s1 [Compound 32, 4-((2,2-Difluoroethyl)(methyl)amino)-N-(6-(5-methyl-1,3,4-thiadiazol-2-yl)isoquinolin-3-yl)piperidine-1-carboxamide]
inhibition at 10 µM ([1]; Homo sapiens): 30.5% | pEC50 ([1]; Homo sapiens): < 5.00 | pEC50 (GSK3β kinase): 6.68 | pEC50 ([2]; Homo sapiens): 6.05 | pEC50 ([3]; Homo sapiens, 96 h): < 5.00 | inhibition at 10 µM ([3]; Homo sapiens): 8.3% | pEC50 ([4]; Homo sapiens, Fibroblast, 96 h): 6.11 | inhibition at 10 µM (IL-6; Homo sapiens, PBMC): 10.1% | pEC50 (IL-6; Homo sapiens, PBMC): < 5.00 | pEC50 (DYRK1A kinase): 7.77

Cc1nnc(-c2ccc3cnc(NC(=O)N4CC[C@H](N)[C@@H](F)C4)cc3c2)s1 [Compound 33, (3S,4S)-4-amino-3-fluoro-N-(6-(5-methyl-1,3,4-thiadiazol-2-yl)isoquinolin-3-yl)piperidine-1-carboxamide]
pEC50 ([1]; Homo sapiens): 5.46 | pEC50 (GSK3β kinase): 7.64 | pEC50 ([2]; Homo sapiens): 6.49 | pEC50 ([3]; Homo sapiens, 96 h): 5.33 | pEC50 ([4]; Homo sapiens, Fibroblast, 96 h): < 5.00 | inhibition at 10 µM ([4]; Homo sapiens, Fibroblast): 49.9% | pEC50 (IL-6; Homo sapiens, PBMC): 5.03 | pEC50 (DYRK1A kinase): 8.05

Cc1nnc(-c2ccc3cnc(NC(=O)N4CC[C@H](N(C)C)[C@@H](F)C4)cc3c2)s1 [Compound 34, (3S,4S)-4-(dimethylamino)-3-fluoro-N-(6-(5-methyl-1,3,4-thiadiazol-2-yl)isoquinolin-3-yl)piperidine-1-carboxamide]
pEC50 ([1]; Homo sapiens): 5.47 | pEC50 (GSK3β kinase): 7.34 | pEC50 ([2]; Homo sapiens): 6.34 | pEC50 ([3]; Homo sapiens, 96 h): 5.42 | pEC50 ([4]; Homo sapiens, Fibroblast, 96 h): < 5.00 | inhibition at 10 µM ([4]; Homo sapiens, Fibroblast): 48.5% | inhibition at 10 µM (IL-6; Homo sapiens, PBMC): 7% | pEC50 (IL-6; Homo sapiens, PBMC): < 5.00 | pEC50 (DYRK1A kinase): 7.82

Cc1nnc(-c2ccc3cnc(NC(=O)N4CC[C@H](NC(C)C)[C@@H](F)C4)cc3c2)s1 [Compound 35, (3S,4S)-3-Fluoro-4-(isopropylamino)-N-(6-(5-methyl-1,3,4-thiadiazol-2-yl)isoquinolin-3-yl)piperidine-1-carboxamide]
pEC50 ([1]; Homo sapiens): 5.48 | pEC50 (GSK3β kinase): 7.08 | pEC50 ([2]; Homo sapiens): 6.27 | pEC50 ([3]; Homo sapiens, 96 h): 5.34 | pEC50 ([4]; Homo sapiens, Fibroblast, 96 h): 5.99 | inhibition at 10 µM (IL-6; Homo sapiens, PBMC): 9.6% | pEC50 (IL-6; Homo sapiens, PBMC): < 5.00 | pEC50 (DYRK1A kinase): 7.59

Cc1nnc(-c2ccc3cnc(NC(=O)N4CCOCC4)cc3c2)s1 [Compound 36, N-(6-(5-Methyl-1,3,4-thiadiazol-2-yl)isoquinolin-3-yl)morpholine-4-carboxamide]
pEC50 ([1]; Homo sapiens): 5.43 | pEC50 (GSK3β kinase): 7.10 | pEC50 ([2]; Homo sapiens): 6.07 | pEC50 ([3]; Homo sapiens, 96 h): 5.24 | pEC50 ([4]; Homo sapiens, Fibroblast, 96 h): 5.28 | inhibition at 10 µM (IL-6; Homo sapiens, PBMC): 4% | pEC50 (IL-6; Homo sapiens, PBMC): < 5.00 | pEC50 (DYRK1A kinase): 7.92

Source: patent publication US10604514B2, “6-(5-membered heteroaryl)isoquinolin-3-yl carboxamides and preparation and use thereof” (Samumed, LLC, priority 2017, dated 2020)
